According to patent EP4353225A1, “NUTRACEUTICAL OR PHARMACEUTICAL COMPOSITION FOR THE TREATMENT OF PELVIC PAIN” (Erbozeta S.p.A., priority 2022, dated 2024):

What was measured:
[1] = system: GM-CSF; experiment: Cytokine array (23 human cytokines) in T24 bladder urothelium cells exposed to THP-1 conditioned media: GM-CSF; format: cell-based; details: T24 cells 4 h
Experimental: (§1) Based on the results of the cytotoxicity experiments, the medium conditioned on THP-1 to be used to study the possible anti-inflammatory activity on the bladder urothelium was obtained by exposing for 2 h the differentiated THP-1 cells to the concentrations of the three functional ingredients and the MIX corresponding to 600, 400, 200, 100, 50 and 25 µg/mL for the MICRONIZED PEA, 15, 10, 5, 2.5, 1.25, 0.625 µg/mL for the DRY MARITIME PINE EXTRACT, 75, 50, 25, 12.5, 6.25, 3.125 µg/mL for HEMP OIL and 690, 460, 230, 115, 57.5 and 28.75 µg/mL for the MIX, respectively. At the end of this incubation, the cells were treated for a further 6 h with the inflammatory stimulus E. coli in the presence of the different treatments. Cells exposed only with the inflammatory stimulus in the absence of pre-treatment were used as a positive control of inflammation.
(§2) The specific anti-inflammatory activity on the bladder urothelium of the three functional ingredients and the MIX was evaluated on an in vitro bladder urothelium epithelium composed of the T24 cell line (ATCC HTB-4TM). T24 cells were exposed for 4 h to conditioned media obtained by treating THP-1 cells differentiated into macrophages with different concentrations of the functional ingredients and MIX, and in the presence of E. coli. At the end of treatment, T24 cells were detached with trypsin, centrifuged, and lysed by sonication in lysis buffer. The supernatant obtained following centrifugation at 10,000 g for 10 min at 4 °C was stored at -80 °C. An extended analysis of the impact of functional ingredients and MIX on inflammation was performed using an assay for the determination of the transcription factor Nf-kB (Abcam) and the evaluation of the expression of pro-inflammatory cytokines with an array of 23 human cytokines (Raybiotech), following the manufacturer's instructions. The cytokines interleukin 1β (IL-1β), interleukin 6 (IL-6), and interleukin 8 (IL-8) were quantified by ELISA assay.
(§3) The results are reported expressed as fold change, calculated as the ratio between the values obtained from the respective treatments on the control of inflammation. As such, the fold change is adimensional.

[2] = system: IL-6; experiment: ELISA of IL-6 in T24 bladder urothelium cells exposed to THP-1 conditioned media; format: cell-based, human; details: T24 cells 4 h
Experimental: as §1, §2, §3

[3] = system: GRO a/b/g; experiment: Cytokine array (23 human cytokines) in T24 bladder urothelium cells exposed to THP-1 conditioned media: GRO a/b/g; format: cell-based; details: T24 cells 4 h
Experimental: as §1, §2, §3

[4] = system: THP-1 differentiated into macrophages; experiment: Cytotoxicity / cell viability of differentiated THP-1 in the presence of E. coli (ATP assay); format: cell-based; details: 2 h pre-treatment + 6 h E. coli
Experimental: Human THP-1 monocytes (ATCC® TIB-202TM) were maintained in THP-1 complete medium (THP-1 CCM) and cultured in a controlled atmosphere at 37 °C. Differentiation into macrophages was induced by incubation with phorbol myristate acetate (PMA) for 24 h. The culture medium was then replaced and the cells left with fresh medium for another 24 h before being exposed to the three functional ingredients, their MIX and the inflammatory stimulus, E. coli.
The cytotoxicity of the three functional ingredients and their MIX was evaluated on a THP-1 immune system model differentiated into macrophages. Based on the method of intake of the formulation, a digestion volume of 2 liters was considered in order to mimic as much as possible the physiological condition of the average volume of liquid contained in the stomach during the digestive process. Cytotoxicity was carried out by constructing a dose-response curve at increasing concentrations of the individual functional ingredients and the MIX in order to identify the maximum concentration usable for subsequent tests. The following concentrations were therefore tested on THP-1: from 50 µg/mL to 600 µg/mL for PEA, from 1.25 µg/mL to 15 µg/mL for DRY MARITIME PINE EXTRACT, from 6.25 µg/mL to 75 µg/mL for HEMP OIL and from 57.5 µg/mL to 690 µg/mL for the MIX. Based on the results of the dose-response curves, cell viability analysis was not performed at higher concentrations due to mortality caused by the mixture at the highest concentration tested. The concentrations used for subsequent experiments were selected in this concentration range. The three functional ingredients and the MIX were dissolved in THP-1 CCM in the absence of antibiotic and in the presence of 1.18 mg/mL of bile as surfactant. The suspensions were incubated under stirring overnight to increase the passage of the functional ingredients into solution and, the following day, the THP-1 cells were washed with Hank's Balanced Salt Solution (HBSS) and pre-treated for 2 h with the different concentrations of the individual functional ingredients and the MIX. At the end of this incubation, the pro-inflammatory stimulus E. coli (1 × 10^6 CFU/mL) was added to the treated cells for a further 6 h. Cells treated only with E. coli were used as a negative control, while cells treated with 10 µM staurosporine were used as a positive cell death control. At the end of the 8 h of treatment, cell viability was assessed by ATP assay (PerkinElmer) to avoid any possible interference from the bacteria present that may occur using other tests such as MTS.

[5] = system: GRO alpha; experiment: Cytokine array (23 human cytokines) in T24 bladder urothelium cells exposed to THP-1 conditioned media: GRO alpha; format: cell-based; details: T24 cells 4 h
Experimental: as §1, §2, §3

[6] = system: transcription factor Nf-kB; experiment: Nuclear levels of transcription factor Nf-kB in T24 bladder urothelium cells exposed to THP-1 conditioned media; format: cell-based, human; details: T24 cells 4 h
Experimental: as §1, §2, §3

[7] = system: IL-8; experiment: ELISA of IL-8 in T24 bladder urothelium cells exposed to THP-1 conditioned media; format: cell-based, human; details: T24 cells 4 h
Experimental: as §1, §2, §3

[8] = system: IL-1β; experiment: ELISA of IL-1β in T24 bladder urothelium cells exposed to THP-1 conditioned media; format: cell-based, human; details: T24 cells 4 h
Experimental: as §1, §2, §3

[9] = Condition 1: MICRONIZED PEA 600, MARITIME PINE EXTRACT 15, HEMP OIL 75, MIX 690 µg/mL (1200, 30, 150, 1380 mg)
[10] = Condition 2: MICRONIZED PEA 400, MARITIME PINE EXTRACT 10, HEMP OIL 50, MIX 460 µg/mL (800, 20, 100, 920 mg)
[11] = Condition 3: MICRONIZED PEA 200, MARITIME PINE EXTRACT 5, HEMP OIL 25, MIX 230 µg/mL (400, 10, 50, 460 mg)
[12] = Condition 4: MICRONIZED PEA 100, MARITIME PINE EXTRACT 2.5, HEMP OIL 12.5, MIX 115 µg/mL (200, 5, 25, 230 mg)
[13] = Condition 5: MICRONIZED PEA 50, MARITIME PINE EXTRACT 1.25, HEMP OIL 6.25, MIX 57.5 µg/mL (100, 2.5, 12.5, 115 mg)
[14] = Condition 6: MICRONIZED PEA 25, MARITIME PINE EXTRACT 0.625, HEMP OIL 3.125, MIX 28.75 µg/mL (50, 1.25, 6.25, 57.5 mg)

SMILES: CCCCCCCCCCCCCCCC(=O)NCCO [MICRONIZED PEA, palmitoylethanolamide]
- GM-CSF fold change vs control [1, 9]: 1.01 Fold change
- GM-CSF fold change vs control [1, 10]: 1.1 Fold change
- GM-CSF fold change vs control [1, 11]: 0.9 Fold change
- GM-CSF fold change vs control [1, 12]: 0.21 Fold change
- GM-CSF fold change vs control [1, 13]: 1.15 Fold change
- GM-CSF fold change vs control [1, 14]: 1.19 Fold change
- IL-6 (Fold change vs Control) Average [2, 9]: 0.48 Fold change
- IL-6 (Fold change vs Control) Average [2, 10]: 0.34 Fold change
- IL-6 (Fold change vs Control) Average [2, 11]: 0.34 Fold change
- IL-6 (Fold change vs Control) Average [2, 12]: 0.33 Fold change
- IL-6 (Fold change vs Control) Average [2, 13]: 0.38 Fold change
- IL-6 (Fold change vs Control) Average [2, 14]: 0.45 Fold change
- GRO a/b/g (Fold change vs Control) Average [3, 9]: 1.14 Fold change
- GRO a/b/g (Fold change vs Control) Average [3, 10]: 0.92 Fold change
- GRO a/b/g (Fold change vs Control) Average [3, 11]: 0.81 Fold change
- GRO a/b/g (Fold change vs Control) Average [3, 12]: 0.58 Fold change
- GRO a/b/g (Fold change vs Control) Average [3, 13]: 1 Fold change
- GRO a/b/g (Fold change vs Control) Average [3, 14]: 1.13 Fold change
- Viability ([4]; MICRONIZED PEA 50 µg/mL (100 mg)): 73.2 ± 9.5%
- Viability ([4]; MICRONIZED PEA 100 µg/mL (200 mg)): 106.5 ± 5.6%
- Viability ([4]; MICRONIZED PEA 300 µg/mL (600 mg)): 86.5 ± 5.9%
- Viability ([4]; MICRONIZED PEA 500 µg/mL (1000 mg)): 71.9 ± 1.3%
- Viability ([4]; MICRONIZED PEA 600 µg/mL (1200 mg)): 73.9 ± 19.5%
- GRO alpha (Fold change vs Control) Average [5, 9]: 1.49 Fold change
- GRO alpha (Fold change vs Control) Average [5, 10]: 0.79 Fold change
- GRO alpha (Fold change vs Control) Average [5, 11]: 1.28 Fold change
- GRO alpha (Fold change vs Control) Average [5, 12]: 1.23 Fold change
- GRO alpha (Fold change vs Control) Average [5, 13]: 0.91 Fold change
- GRO alpha (Fold change vs Control) Average [5, 14]: 1.17 Fold change
- Nf-kB (Fold change vs Control) Average [6, 9]: 2.89 Fold change
- Nf-kB (Fold change vs Control) Average [6, 10]: 6.16 Fold change
- Nf-kB (Fold change vs Control) Average [6, 11]: 0.12 Fold change
- Nf-kB (Fold change vs Control) Average [6, 12]: 0.75 Fold change
- Nf-kB (Fold change vs Control) Average [6, 13]: 0.57 Fold change
- Nf-kB (Fold change vs Control) Average [6, 14]: 0.43 Fold change
- Nf-kB levels (nuclear translocation) ([6]; result in words, over the concentrations tested): reduces the nuclear translocation of the transcription factor NF-κB starting from 25 µg/mL (50 mg) up to 200 µg/mL (400 mg)
- IL-8 (Fold change vs Control) Average [7, 9]: 0.55 Fold change
- IL-8 (Fold change vs Control) Average [7, 10]: 0.49 Fold change
- IL-8 (Fold change vs Control) Average [7, 11]: 0.51 Fold change
- IL-8 (Fold change vs Control) Average [7, 12]: 0.54 Fold change
- IL-8 (Fold change vs Control) Average [7, 13]: 0.68 Fold change
- IL-8 (Fold change vs Control) Average [7, 14]: 0.69 Fold change
- IL-1β (Fold change vs Control) Average [8, 9]: 0.14 Fold change
- IL-1β (Fold change vs Control) Average [8, 10]: 0.25 Fold change
- IL-1β (Fold change vs Control) Average [8, 11]: 0.15 Fold change
- IL-1β (Fold change vs Control) Average [8, 12]: 0.25 Fold change
- IL-1β (Fold change vs Control) Average [8, 13]: 0.30 Fold change
- IL-1β (Fold change vs Control) Average [8, 14]: 0.30 Fold change
